Measurements as given in patent US9073821B2, “Hydroxamic acid derivative” (priority 2010, dated 2015).

Each compound was assayed against Pseudomonas aeruginosa LpxC enzyme (Pseudomonas aeruginosa (strain ATCC 15692 / DSM 22644 / CIP 104116 / JCM 14847 / LMG 12228 / 1C / PRS 101 / PAO1), UniProt P47205) (assay: biochemical). Conditions: class symbols A/B/C by IC50; Table 3; read-out: Enzyme inhibitory activity (inhibitory activity on Pseudomonas aeruginosa LpxC enzyme).
Format: biochemical

IC50 | SMILES
< 0.01 µM | CNC(=O)C(C(=O)NO)N(C)C(=O)c1ccc(C#Cc2coc(COC)c2)cc1 (stereo not drawn) [Compound 514, N-hydroxy-2-{[(4-{[5-(methoxymethyl)furan-3-yl]ethynyl}phenyl)carbonyl](methyl)amino}-N′-methylpropanediamide]

Same assay, conditions: inhibitory activity on Pseudomonas aeruginosa LpxC enzyme, class symbols A/B/C; read-out: Enzyme inhibitory activity

IC50 | SMILES
0.01 to 0.1 µM | CCCNC(=O)C(NC(=O)c1ccc(-c2ccc(OCCO)cc2)cc1)C(=O)NO (stereo not drawn) [Compound 142, N-hydroxy-2-({[4′-(2-hydroxyethoxy)biphenyl-4-yl]carbonyl}amino)-N′-propylpropanediamide]
< 0.01 µM | O=C(NC(C(=O)NO)C(=O)NCc1cocn1)c1ccc(-c2ccc(OCCO)cc2)cc1 (stereo not drawn) [Compound 157, N-hydroxy-2-({[4′-(2-hydroxyethoxy)biphenyl-4-yl]carbonyl}amino)-N′-(1,3-oxazol-4-ylmethyl)propanediamide]
0.01 to 0.1 µM | CNC(=O)C(C(=O)NO)N(C)C(=O)c1ccc(C#Cc2ccc(C3(N)CC3)cc2)cc1 (stereo not drawn) [Compound 394, 2-{[(4-{[4-(1-aminocyclopropyl)phenyl]ethynyl}phenyl)carbonyl](methyl)amino}-N-hydroxy-N′-methylpropanediamide]
< 0.01 µM | CNC(=O)C(C(=O)NO)N(C)C(=O)c1ccc(-c2ccc(F)c(Cl)c2)cc1 (stereo not drawn) [Compound 223, 2-{[(3′-chloro-4′-fluorobiphenyl-4-yl)carbonyl](methyl)amino}-N-hydroxy-N′-methylpropanediamide]
0.01 to 0.1 µM | CNC(=O)C(C(=O)NO)N(C)C(=O)c1ccc(C#Cc2ccc(CNC(C)(C)C)cc2)cc1 (stereo not drawn) [Compound 328]
> 0.1 µM | CC(C)(C)NC(=O)C(NC(=O)c1ccc(-c2ccc(OCCO)cc2)cc1)C(=O)NO (stereo not drawn) [Compound 119, N-tert-butyl-N′-hydroxy-2-({[4′-(2-hydroxyethoxy)biphenyl-4-yl]carbonyl}amino)propanediamide]
< 0.01 µM | O=C(NC(C(=O)NO)C(=O)NCC1CCCO1)c1ccc(-c2ccc(OCCO)cc2)cc1 (stereo not drawn) [Compound 134, N-hydroxy-2-({[4′-(2-hydroxyethoxy)biphenyl-4-yl]carbonyl}amino)-N′-(tetrahydrofuran-2-ylmethyl)propanediamide]
< 0.01 µM | CNC(=O)C(C(=O)NO)N(C)C(=O)c1ccc(-c2ccc3c(ccn3C)c2)cc1 (stereo not drawn) [Compound 19, N-hydroxy-N′-methyl-2-{methyl[4-(1-methyl-1H-indol-5-yl)benzoyl]amino}propanediamide]
0.01 to 0.1 µM | CNC(=O)C(C(=O)NO)N(C)C(=O)c1ccc(-c2ccc(N(C)C)c(F)c2)cc1 (stereo not drawn) [Compound 54, 2-[{[4′-(dimethylamino)-3′-fluorobiphenyl-4-yl]carbonyl}(methyl)amino]-N-hydroxy-N′-methylpropanediamide]
0.01 to 0.1 µM | CNC(=O)C(C(=O)NO)N(C)C(=O)c1ccc(-c2ccc(NCCCN3CCOCC3)cc2)cc1 (stereo not drawn) [Compound 86, N-hydroxy-N′-methyl-2-{methyl[(4′-{[3-(morpholin-4-yl)propyl]amino}biphenyl-4-yl)carbonyl]amino}propanediamide]
0.01 to 0.1 µM | CNC(=O)C(C(=O)NO)N(C)C(=O)c1ccc(C#Cc2ccnc(C)c2)cc1 (stereo not drawn) [Compound 464, N-hydroxy-N′-methyl-2-[methyl({4-[(2-methylpyridin-4-yl)ethynyl]phenyl}carbonyl)amino]propanediamide]
< 0.01 µM | CNC(=O)C(C(=O)NO)N(C)C(=O)c1ccc(-c2ccc(OCC3(C)COC3)cc2)cc1 (stereo not drawn) [Compound 95, N-hydroxy-N′-methyl-2-[methyl({4′-[(3-methyloxetan-3-yl)methoxy]biphenyl-4-yl}carbonyl)amino]propanediamide]
> 0.1 µM | CNC(=O)C(C(=O)NO)N(C)C(=O)c1ccc(-c2cncc(OC)c2)cc1 (stereo not drawn) [Compound 447, N-hydroxy-2-[{[4-(5-methoxypyridin-3-yl)phenyl]carbonyl}(methyl)amino]-N′-methylpropanediamide]
0.01 to 0.1 µM | CNC(=O)C(C(=O)NO)N(C)C(=O)c1ccc(-c2ccc(CC(=O)N(C)C)cc2)cc1 (stereo not drawn) [Compound 265, 2-[({4′-[2-(dimethylamino)-2-oxoethyl]biphenyl-4-yl}carbonyl)(methyl)amino]-N-hydroxy-N′-methylpropanediamide]
> 0.1 µM | CNC(=O)C(C(=O)NO)N(C)C(=O)c1ccc(-c2ccoc2)cc1 (stereo not drawn) [Compound 105, 2-{[4-(furan-3-yl)benzoyl](methyl)amino}-N-hydroxy-N′-methylpropanediamide]
0.01 to 0.1 µM | CCCNC(=O)c1ccc(-c2ccc(C(=O)N(C)C(C(=O)NC)C(=O)NO)cc2)cc1 (stereo not drawn) [Compound 257, N-[1-(hydroxyamino)-3-(methylamino)-1,3-dioxopropan-2-yl]-N-methyl-N′-propylbiphenyl-4,4′-dicarboxamide]
< 0.01 µM | CNC(=O)C(C(=O)NO)N(C)C(=O)c1ccc(-c2ccc(OCCCN3CCCOCC3)cc2)cc1 (stereo not drawn) [Compound 277, N-hydroxy-N′-methyl-2-[methyl({4′-[3-(1,4-oxazepan-4-yl)propoxy]biphenyl-4-yl}carbonyl)amino]propanediamide]
< 0.01 µM | CNC(=O)C(C(=O)NO)N(C)C(=O)c1ccc(C#Cc2ccc(CNCCF)cc2)cc1 (stereo not drawn) [Compound 300, 2-[({4-[(4-{[(2-fluoroethyl)amino]methyl}phenyl)ethynyl]phenyl}carbonyl)(methyl)amino]-N-hydroxy-N′-methylpropanediamide]

IC50 | SMILES
< 0.01 µM | CNC(=O)C(C(=O)NO)N(C)C(=O)c1ccc(-c2ccc(CCF)cc2)cc1 (stereo not drawn) [Compound 238, 2-[{[4′-(2-fluoroethyl)biphenyl-4-yl]carbonyl}(methyl)amino]-N-hydroxy-N′-methylpropanediamide]
> 0.1 µM | CNC(=O)C(C(=O)NO)N(C)C(=O)c1ccc(-c2cnccn2)cc1 (stereo not drawn) [Compound 309, N-hydroxy-N′-methyl-2-(methyl {[4-(pyrazin-2-yl)phenyl]carbonyl}amino)propanediamide]
0.01 to 0.1 µM | CNC(=O)C(C(=O)NO)N(C)C(=O)c1ccc(OCc2ccc(OC)cc2)cc1 (stereo not drawn) [Compound 319, N-hydroxy-2-[({4-[(4-methoxybenzyl)oxy]phenyl}carbonyl)(methyl)amino]-N′-methylpropanediamide]
< 0.01 µM | Cn1cc(CNC(=O)C(NC(=O)c2ccc(-c3ccc(OCCO)cc3)cc2)C(=O)NO)cn1 (stereo not drawn) [Compound 147, N-hydroxy-2-({[4′-(2-hydroxyethoxy)biphenyl-4-yl]carbonyl}amino)-N′-[(1-methyl-1H-pyrazol-4-yl)methyl]propanediamide]
< 0.01 µM | CNC(=O)C(C(=O)NO)N(C)C(=O)c1ccc(C#Cc2ccc(CN3Cc4ccccc4C3)cc2)cc1 (stereo not drawn) [Compound 489, 2-{[(4-{[4-(1,3-dihydro-2H-isoindol-2-ylmethyl)phenyl]ethynyl}phenyl)carbonyl](methyl)amino}-N-hydroxy-N′-methylpropanediamide]
> 0.1 µM | CN(C(=O)c1ccc(-c2ccccc2)cc1)C(C(=O)NO)C(=O)NCCc1ccccc1 (stereo not drawn) [Compound 76, 2-[(biphenyl-4-ylcarbonyl)(methyl)amino]-N-hydroxy-N′-(2-phenylethyl)propanediamide]
0.01 to 0.1 µM | CNC(=O)C(C(=O)NO)N(C)C(=O)c1ccc(C#Cc2ccc(CNC3CCCCC3)cc2)cc1 (stereo not drawn) [Compound 318, 2-[{[4-({4-[(cyclohexylamino)methyl]phenyl}ethynyl)phenyl]carbonyl}(methyl)amino]-N-hydroxy-N′-methylpropanediamide]
< 0.01 µM | CNC(=O)C(NC(=O)c1ccc(C#Cc2ccc(CN3CCCOCC3)cc2)cc1)C(=O)NO (stereo not drawn) [Compound 117, N-hydroxy-N′-methyl-2-[(4-{[4-(1,4-oxazepan-4-ylmethyl)phenyl]ethynyl}benzoyl)amino]propanediamide]
< 0.01 µM | CNC(=O)C(C(=O)NO)N(C)C(=O)c1ccc(-c2ccc3ncsc3c2)cc1 (stereo not drawn) [Compound 199, 2-{[4-(1,3-benzothiazol-6-yl)benzoyl](methyl)amino}-N-hydroxy-N′-methylpropanediamide]
< 0.01 µM | CNC(=O)C(C(=O)NO)N(C)C(=O)c1ccc(C#CC#Cc2ccc(CNC3CC3)cc2)cc1 (stereo not drawn) [Compound 476, 2-[{[4-(4-{4-[(cyclopropylamino)methyl]phenyl}buta-1,3-diyn-1-yl)phenyl]carbonyl}(methyl)amino]-N-hydroxy-N′-methylpropanediamide]
> 0.1 µM | CNC(=O)C(NC(=O)c1ccc(OC(F)(F)F)cc1)C(=O)NO (stereo not drawn) [Compound 16, N-hydroxy-N′-methyl-2-{[4-(trifluoromethoxy)benzoyl]amino}propanediamide]
0.01 to 0.1 µM | CNC(=O)C(C(=O)NO)N(C)C(=O)c1ccc(OC2C=CCCC2)cc1 (stereo not drawn) [Compound 444, 2-[{[4-(cyclohex-2-en-1-yloxy)phenyl]carbonyl}(methyl)amino]-N-hydroxy-N′-methylpropanediamide]
0.01 to 0.1 µM | CNC(=O)C(C(=O)NO)N(C)C(=O)c1ccc(-c2ccc3c(c2)CCN3)cc1 (stereo not drawn) [Compound 39, 2-{[4-(2,3-dihydro-1H-indol-5-yl)benzoyl](methyl)amino}-N-hydroxy-N′-methylpropanediamide]
0.01 to 0.1 µM | CCCCCCCCOc1ccc(C(=O)N(C)C(C(=O)NC)C(=O)NO)cc1 (stereo not drawn) [Compound 25, N-hydroxy-N′-methyl-2-{methyl[4-(octyloxy)benzoyl]amino}propanediamide]
< 0.01 µM | CNC(=O)C(C(=O)NO)N(C)C(=O)c1ccc(C#Cc2ccc3c(c2)CN(C2CC2)C3)cc1 (stereo not drawn) [Compound 385, 2-[({4-[(2-cyclopropyl-2,3-dihydro-1H-isoindol-5-yl)ethynyl]phenyl}carbonyl)(methyl)amino]-N-hydroxy-N′-methylpropanediamide]
< 0.01 µM | CNC(=O)C(C(=O)NO)N(CCF)C(=O)c1ccc(-c2ccccc2)cc1 (stereo not drawn) [Compound 193, 2-[(biphenyl-4-ylcarbonyl)(2-fluoroethyl)amino]-N-hydroxy-N′-methylpropanediamide]
0.01 to 0.1 µM | O=C(NC(C(=O)NO)C(=O)NO)c1ccc(-c2ccc(OCCO)cc2)cc1 [Compound 148, N,N′-dihydroxy-2-({[4′-(2-hydroxyethoxy)biphenyl-4-yl]carbonyl}amino)propanediamide]
